A value given as a limit tells only on which side of the number the result lay.

The text below walks through data of US4530840A, “Injectable, long-acting microparticle formulation for the delivery of anti-inflammatory agents” (priority 1982, dated 1985).

Data set [1] in a line: Saturation solubility in 50 wt % aqueous ethanol. The data set is classed as physicochemical. The settings on record: organic solvent or mixture, 50 wt % of aqueous ethanol.
A short description of data set [2]: In vitro release / dissolution of methylprednisolone acetate in 50 wt % aqueous ethanol at 37° C. The class given is physicochemical. The settings on record: unencapsulated.
Experimental: The in vitro release of methylprednisolone acetate from microparticles into a receiving fluid comprising 50 wt % of aqueous ethanol maintained at 37° C. was measured.
Triplicate samples of 20 mg of microparticles were weighed and each sample was placed in an 8-oz bottle containing 150 mL of 50 wt % aqueous ethanol. […] Next, the bottles were sealed with a thin sheet of Teflon and a screw cap to prevent evaporation. The bottles were then placed in an Eberbach shaker bath oscillating at 120 cycles/min and maintained at 37° C. The amount of drug released from the microparticles as a function of time was measured by determining the absorbance of the aqueous ethanol receiving fluid at 247 nm and by using the following equation based on Beer's Law.
methylprednisolone acetate in g/ml.

As for `CC(=O)OCC(=O)[C@@]1(O)CC[C@H]2[C@@H]3C[C@H](C)C4=CC(=O)C=C[C@]4(C)[C@H]3[C@@H](O)C[C@@]21C` [Methylprednisolone acetate, 6α-methylprednisolone acetate], the solubility in data set [1] was above 3000 µg/mL. In data set [2], this compound gave a dissolution complete of 30 min.

The solubility is the concentration that dissolves in the medium under given conditions.
